Read-outs that look alike come from different tables or passages of the source.
Biological target: T1, 5-HT1A receptors (Rattus norvegicus, UniProt P19327)
T1 sequence (P19327 1-422): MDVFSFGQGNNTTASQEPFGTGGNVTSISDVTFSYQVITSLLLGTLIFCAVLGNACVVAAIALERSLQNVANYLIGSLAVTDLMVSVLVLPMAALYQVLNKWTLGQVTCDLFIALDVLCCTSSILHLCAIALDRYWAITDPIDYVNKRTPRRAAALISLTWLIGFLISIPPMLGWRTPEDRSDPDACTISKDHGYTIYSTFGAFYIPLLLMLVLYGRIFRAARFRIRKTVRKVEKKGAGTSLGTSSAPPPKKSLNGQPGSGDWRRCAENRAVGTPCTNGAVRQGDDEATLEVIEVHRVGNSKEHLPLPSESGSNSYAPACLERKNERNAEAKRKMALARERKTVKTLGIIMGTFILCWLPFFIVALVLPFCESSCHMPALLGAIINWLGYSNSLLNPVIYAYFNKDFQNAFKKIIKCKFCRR
Experiment: Ex vivo ARG, 5-HT1A receptor occupancy after drug administration
Assay type: in vivo
Set-up: Twenty-micrometer-thick frozen brain sections were preincubated; from tissue; host or cells: rat brain (hippocampus and raphe nucleus): frozen sections or living animals
Conditions: for ED50: rat, po, ex vivo ARG, read-out: ED50 (5-HT1A receptor occupancy)
Experimental: Animals were then killed by decapitation 5 h and 30 min after their administration, respectively. Autoradiographic analysis was performed using procedures similar to in vitro ARG except for incubation temperature (37°C) and times for preincubation (30 sec), incubation (5 min) and rinsing (1 min). […] The doses of these drugs at half-maximal effect (ED50) were determined according to the following relationship: [drawing 2] where D is the dose of the drug.

## Cc1nnc(-c2cc3c(OC[C@@H](O)CN4CCC(c5ccc(Cl)c(Cl)c5)CC4)cccc3o2)o1.Cl [Wf-516, (2S)-1-[4-(3,4-dichlorophenyl)piperidin-1-yl]-3-[2-(5-methyl-1,3,4-oxadiazol-2-yl)benzo[b]furan-4-yloxy]propan-2-ol monohydrochloride]
oral, 5 h after administration, irrespective of region
  5-HT1A receptor binding (occupancy), dose-dependent up to: approximately 80%
hippocampus
  ED50: 5.3 mg/kg
Raphe nucleus
  ED50: 4.2 mg/kg

From article PMC3413639 (PLoS ONE, 2012)
